Laboratory results taken from ChEMBL document CHEMBL3779874, “Pyridones as Highly Selective, Noncovalent Inhibitors of T790M Double Mutants of EGFR” (ACS Med Chem Lett, 2016).
Converted amounts (≈) assume the structure as drawn. The source made the active and inactive calls. The rule behind the calls is not given here.

How the values were obtained:
Homo sapiens [1] = species: Homo sapiens; experiment: Selectivity ratio of Ki(app) for JAK2 (unknown origin) to Ki(app) for human EGFR catalytic domain (668 to 1210 residues) T790M/L858R double mutant
Homo sapiens [2] = species: Homo sapiens; experiment: Selectivity ratio of Ki(app) for JAK1 (unknown origin) to Ki(app) for human EGFR catalytic domain (668 to 1210 residues) T790M/L858R double mutant
[3] = target: T1, Epidermal growth factor receptor (Homo sapiens, UniProt P00533, L858R/T790M); experiment: Inhibition of human EGFR catalytic domain (668 to 1210 residues) T790M/L858R double mutant using Fl-EEPLYWSFPAKKK-CONH2 peptide substrate preincubated for 30 mins followed by substrate addition measured after 30 mins by Caliper Mobility Shift Assay; assay type: protein assay; settings: read-out: Ki(app)
Homo sapiens [4] = species: Homo sapiens; experiment: Selectivity ratio of Ki(app) for human N-terminal GST-tagged EGFR catalytic domain (669 to 1210 residues) expressed in baculovirus expression system to Ki(app) for human EGFR catalytic domain (668 to 1210 residues) T790M/L858R double mutant
[5] = target: Epidermal growth factor receptor (Homo sapiens, UniProt P00533); experiment: Inhibition of human N-terminal GST-tagged EGFR catalytic domain (669 to 1210 residues) expressed in baculovirus expression system using Fl-EEPLYWSFPAKKK-CONH2 peptide substrate preincubated for 30 mins followed by substrate addition measured after 30 mins by Caliper Mobility Shift Assay; settings: read-out: Ki(app)
Sequence of Epidermal growth factor receptor (Homo sapiens, UniProt P00533) (P00533 whole entry, the tested form may be a part): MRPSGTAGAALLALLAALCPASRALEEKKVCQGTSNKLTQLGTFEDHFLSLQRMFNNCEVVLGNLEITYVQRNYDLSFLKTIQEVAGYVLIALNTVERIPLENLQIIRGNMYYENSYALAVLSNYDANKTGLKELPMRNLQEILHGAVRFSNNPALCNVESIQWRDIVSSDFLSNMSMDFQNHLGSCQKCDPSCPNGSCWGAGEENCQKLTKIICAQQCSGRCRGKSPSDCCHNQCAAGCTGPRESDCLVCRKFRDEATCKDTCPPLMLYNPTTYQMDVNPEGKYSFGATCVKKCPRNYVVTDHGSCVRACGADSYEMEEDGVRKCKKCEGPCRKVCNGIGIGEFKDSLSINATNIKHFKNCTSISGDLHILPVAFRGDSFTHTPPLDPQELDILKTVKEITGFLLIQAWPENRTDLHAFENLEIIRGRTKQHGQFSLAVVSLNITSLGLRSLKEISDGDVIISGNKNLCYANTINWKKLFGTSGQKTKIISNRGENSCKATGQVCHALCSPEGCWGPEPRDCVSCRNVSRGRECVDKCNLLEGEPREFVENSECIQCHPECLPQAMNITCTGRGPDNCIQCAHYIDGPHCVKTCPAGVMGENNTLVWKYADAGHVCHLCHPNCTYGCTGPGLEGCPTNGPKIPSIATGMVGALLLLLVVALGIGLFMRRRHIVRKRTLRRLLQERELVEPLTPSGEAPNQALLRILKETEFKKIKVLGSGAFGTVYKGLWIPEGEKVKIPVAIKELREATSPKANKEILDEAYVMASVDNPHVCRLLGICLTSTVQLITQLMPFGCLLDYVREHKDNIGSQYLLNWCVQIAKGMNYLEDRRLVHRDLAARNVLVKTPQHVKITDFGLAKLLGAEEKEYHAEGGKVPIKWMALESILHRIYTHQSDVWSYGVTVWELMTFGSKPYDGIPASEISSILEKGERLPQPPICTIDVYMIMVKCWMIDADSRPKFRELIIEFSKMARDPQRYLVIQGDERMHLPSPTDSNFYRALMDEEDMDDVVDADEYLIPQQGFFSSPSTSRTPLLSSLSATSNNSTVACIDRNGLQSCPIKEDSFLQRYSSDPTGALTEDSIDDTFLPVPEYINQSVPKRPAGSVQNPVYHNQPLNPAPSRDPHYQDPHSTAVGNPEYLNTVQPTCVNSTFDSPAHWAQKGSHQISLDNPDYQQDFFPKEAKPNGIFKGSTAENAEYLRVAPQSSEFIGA

[6] = Kinetic solubility of compound in pH7.4 DMSO/phosphate buffered saline after 24 hrs by chemiluminescent nitrogen detection method; assay type: physicochemical; settings: pH 7.4, read-out: Kinetic_solubility
[7] = target: T1, Epidermal growth factor receptor; experiment: Inhibition of EGFR T790M/L858R double mutant phosphorylation in human H1975 cells preincubated for 1 hr followed by EGF stimulation for 8 mins by electrochemiluminescent immunoassay; assay type: cell-based
[8] = Lipophilicity, log D of compound at pH 7.4; assay type: physicochemical; settings: buffer
[9] = target: T2, Tyrosine-protein kinase JAK2 (Homo sapiens, UniProt O60674); experiment: Inhibition of JAK2 (unknown origin); settings: read-out: Ki(app)
T2 sequence (O60674 whole entry): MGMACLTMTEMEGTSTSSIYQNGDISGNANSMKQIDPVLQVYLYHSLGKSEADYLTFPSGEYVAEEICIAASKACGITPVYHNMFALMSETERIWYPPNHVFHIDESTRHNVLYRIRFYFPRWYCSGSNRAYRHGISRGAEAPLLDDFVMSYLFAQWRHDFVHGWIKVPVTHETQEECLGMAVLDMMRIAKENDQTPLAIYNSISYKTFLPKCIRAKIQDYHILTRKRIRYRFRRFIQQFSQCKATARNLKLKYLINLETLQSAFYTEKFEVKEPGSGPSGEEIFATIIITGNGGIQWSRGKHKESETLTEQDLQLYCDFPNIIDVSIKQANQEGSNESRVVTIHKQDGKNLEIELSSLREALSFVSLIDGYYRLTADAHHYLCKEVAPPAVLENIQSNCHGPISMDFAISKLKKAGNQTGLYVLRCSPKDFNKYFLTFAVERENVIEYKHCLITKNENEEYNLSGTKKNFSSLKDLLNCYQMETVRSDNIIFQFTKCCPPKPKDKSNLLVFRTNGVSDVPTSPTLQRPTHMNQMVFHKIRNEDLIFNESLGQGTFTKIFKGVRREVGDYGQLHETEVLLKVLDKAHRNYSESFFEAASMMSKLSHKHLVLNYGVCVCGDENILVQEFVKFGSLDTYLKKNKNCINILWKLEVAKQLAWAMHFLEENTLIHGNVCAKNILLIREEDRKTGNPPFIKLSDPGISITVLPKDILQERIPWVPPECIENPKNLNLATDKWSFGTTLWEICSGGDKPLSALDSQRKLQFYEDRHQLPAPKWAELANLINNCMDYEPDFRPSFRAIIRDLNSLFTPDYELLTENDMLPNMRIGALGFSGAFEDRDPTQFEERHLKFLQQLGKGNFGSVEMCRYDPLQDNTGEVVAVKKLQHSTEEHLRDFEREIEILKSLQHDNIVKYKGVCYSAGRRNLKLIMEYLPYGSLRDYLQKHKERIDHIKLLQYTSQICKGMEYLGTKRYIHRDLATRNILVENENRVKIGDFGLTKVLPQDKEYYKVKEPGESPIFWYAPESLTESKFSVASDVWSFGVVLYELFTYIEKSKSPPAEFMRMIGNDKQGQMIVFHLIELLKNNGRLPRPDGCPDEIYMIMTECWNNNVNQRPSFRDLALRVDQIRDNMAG

[10] = target: T2, Tyrosine-protein kinase JAK2; experiment: Inhibition of JAK2 (unknown origin) at 1 uM
Homo sapiens [11] = species: Homo sapiens; experiment: Selectivity ratio of Ki(app) for JAK1 (unknown origin) to Ki(app) for JAK2 (unknown origin)
[12] = target: Tyrosine-protein kinase JAK1 (Homo sapiens, UniProt P23458); experiment: Inhibition of JAK1 (unknown origin); settings: read-out: Ki(app)
Sequence of Tyrosine-protein kinase JAK1 (P23458 whole entry): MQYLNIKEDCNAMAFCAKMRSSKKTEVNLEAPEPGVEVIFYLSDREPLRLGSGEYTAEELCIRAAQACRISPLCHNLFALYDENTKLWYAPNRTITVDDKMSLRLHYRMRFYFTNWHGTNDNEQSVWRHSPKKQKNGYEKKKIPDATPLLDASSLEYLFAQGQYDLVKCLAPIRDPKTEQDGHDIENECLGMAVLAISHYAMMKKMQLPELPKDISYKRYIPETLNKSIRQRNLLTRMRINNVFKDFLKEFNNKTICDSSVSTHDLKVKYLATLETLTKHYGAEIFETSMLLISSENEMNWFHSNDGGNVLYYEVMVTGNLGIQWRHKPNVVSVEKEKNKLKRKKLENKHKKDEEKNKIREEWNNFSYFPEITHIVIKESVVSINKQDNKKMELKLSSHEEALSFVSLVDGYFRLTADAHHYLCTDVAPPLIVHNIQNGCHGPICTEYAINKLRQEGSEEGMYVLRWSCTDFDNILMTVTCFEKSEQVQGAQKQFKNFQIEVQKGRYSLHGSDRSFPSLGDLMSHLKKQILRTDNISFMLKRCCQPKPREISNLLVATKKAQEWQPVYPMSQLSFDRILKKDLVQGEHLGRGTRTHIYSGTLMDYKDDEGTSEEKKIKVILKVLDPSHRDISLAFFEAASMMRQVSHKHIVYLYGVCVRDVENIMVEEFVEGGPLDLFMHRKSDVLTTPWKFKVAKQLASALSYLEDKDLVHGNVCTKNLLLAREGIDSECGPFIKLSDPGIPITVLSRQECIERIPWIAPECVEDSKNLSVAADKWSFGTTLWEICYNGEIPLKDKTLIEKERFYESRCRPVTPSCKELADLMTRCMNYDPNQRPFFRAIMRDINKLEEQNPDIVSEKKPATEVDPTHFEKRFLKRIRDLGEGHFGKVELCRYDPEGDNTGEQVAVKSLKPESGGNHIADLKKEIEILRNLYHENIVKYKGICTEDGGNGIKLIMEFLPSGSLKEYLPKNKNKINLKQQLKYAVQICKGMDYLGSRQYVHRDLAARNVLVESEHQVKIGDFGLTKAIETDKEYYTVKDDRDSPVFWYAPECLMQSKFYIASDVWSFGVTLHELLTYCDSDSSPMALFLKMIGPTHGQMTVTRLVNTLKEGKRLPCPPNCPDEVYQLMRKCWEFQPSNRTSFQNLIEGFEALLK

H1975 = experiment: Ratio of EC50 for wild type EGFR phosphorylation in human H292 cells to EC50 for EGFR T790M/L858R double mutant phosphorylation in human H1975 cells; assay type: cell-based

Compound | Ki [3] | Ratio Ki(app) (Homo sapiens [4]) | Ki [5] | also measured
COc1ccccc1Nc1cc[nH]c(=O)c1-c1nc2c(C(C)C)ccc(C)c2[nH]1 | 88 nM | 27 | – | Ratio Ki(app) (Homo sapiens [1]): 0.3; Ratio Ki(app) (Homo sapiens [2]): 6
COc1ccccc1Nc1cc[nH]c(=O)c1C(=O)Nc1ccc(N2CCCN(C)CC2)cc1 | 12 nM | 57 | 705 nM | –
CN1CCN(c2ccc(NC(=O)c3c(NCc4ccccc4)cc[nH]c3=O)cc2)CC1 | 350 nM | 1 | 349 nM | –
COc1ccccc1Nc1cc[nH]c(=O)c1C(=O)Nc1ccc(N2CCC(C)CC2)cc1 | 625 nM | > 4.1 | > 2500 nM | –
CN1CCN(c2ccc(NC(=O)c3c(NC[C@@H](O)c4cccc(Cl)c4)cc[nH]c3=O)cc2)CC1 | 65 nM | < 1 | 18 nM | solubility kinetic at 24 h [6]: 11 µM (≈ 5.3 µg/mL); EC50 [7]: 412 nM
COc1ccccc1Nc1cc[nH]c(=O)c1C(=O)Nc1ccc(N2CCS(=O)(=O)CC2)cc1 | 37 nM | > 34 | > 1300 nM | –
CN1CCN(c2ccc(NC(=O)c3c(Nc4ccncn4)cc[nH]c3=O)cc2)CC1 | 95 nM | > 27 | > 2540 nM | –
CN1CCN(c2ccc(NC(=O)c3c(Nc4ccncc4N)cc[nH]c3=O)cc2)CC1 | 145 nM | > 8 | > 1230 nM | –
COc1ccccc1Nc1cc[nH]c(=O)c1C(=O)Nc1ccc(CN2CCN(C)CC2)cc1 | 51 nM | 22 | 1200 nM | –
CN1CCN(c2ccc(NC(=O)c3c(N)cc[nH]c3=O)cc2)CC1 | 346 nM | > 7 | > 2540 nM | –
COc1ccccc1Nc1cc[nH]c(=O)c1-c1nc2c(C(C)C)cccc2[nH]1 | 58 nM | 42 | 2400 nM | Ratio Ki(app) (Homo sapiens [1]): 0.2; Ratio Ki(app) (Homo sapiens [2]): 2
COc1ccccc1Nc1cc[nH]c(=O)c1C(=O)Nc1ccc(N2CCN(C)CC2)nc1 | 78 nM | > 33 | > 2500 nM | logD [8]: 2.6; solubility kinetic at 24 h [6]: 65 µM (≈ 28.2 µg/mL)
CN1CCN(c2ccc(NC(=O)c3c(Nc4ccccc4)cc[nH]c3=O)cc2)CC1 | 144 nM | > 18 | > 2540 nM | –
CN1CCN(c2ccc(NC(=O)c3c(Nc4ccccn4)cc[nH]c3=O)cc2)CC1 | 108 nM | > 24 | > 2540 nM | –
Cc1ccccc1Nc1cc[nH]c(=O)c1C(=O)Nc1ccc(N2CCN(C)CC2)cc1 | 61 nM | 38 | 2340 nM | –
COc1ccccc1N(C)c1cc[nH]c(=O)c1C(=O)Nc1ccc(N2CCN(C)CC2)cc1 | > 2060 nM | 1 | > 2540 nM | –

Compound | Ki [3] | Ratio Ki(app) (Homo sapiens [4]) | Ki [5] | also measured
CN1CCN(c2ccc(NC(=O)c3c(Nc4ccccc4Cl)cc[nH]c3=O)cc2)CC1 | 82 nM | 18 | 1480 nM | –
CN(C)c1ccc(NC(=O)c2c(NCCc3cccc(Cl)c3)cc[nH]c2=O)cc1 | 290 nM | 1 | 757 nM | –
COc1ccccc1Nc1cc[nH]c(=O)c1C(=O)Nc1ccc(N2CCN(C)CC2)cn1 | > 2060 nM | 1 | > 2500 nM | –
COc1ccccc1Nc1cc[nH]c(=O)c1C(=O)Nc1ccc(N2CCN(C)CC2)cc1 | 19 nM | 58 | 1090 nM | Ki [9]: 9 nM; inhibition [10]: Active; logD [8]: 3.5; solubility kinetic at 24 h [6]: 4 µM (≈ 1.73 µg/mL); Ratio Ki(app) (Homo sapiens [1]): 0.5; Ratio Ki(app) (Homo sapiens [2]): 9; Ratio Ki(app) (Homo sapiens [11]): 10; Ki [12]: 172 nM; EC50 [7]: 1090 nM; Ratio EC50 (H1975): 5
CN1CCN(c2ccc(NC(=O)c3c(Nc4cccc(Cl)c4)cc[nH]c3=O)cc2)CC1 | 155 nM | 16 | 2520 nM | –
CCc1cc(NC(=O)c2c(Nc3ccccc3OC)cc[nH]c2=O)ccc1N1CCN(C)CC1 | 31 nM | > 80 | – | Ratio Ki(app) (Homo sapiens [1]): 4; Ratio Ki(app) (Homo sapiens [2]): 104
O=C(Nc1ccccc1)c1c(NCCc2cccc(Cl)c2)cc[nH]c1=O | 330 nM | 2 | 1210 nM | –
CN1CCN(c2ccc(NC(=O)c3c(Nc4ccnc(N)n4)cc[nH]c3=O)cc2)CC1 | 4 nM | 213 | 850 nM | inhibition [10]: Active; Ratio Ki(app) (Homo sapiens [1]): 2; Ratio Ki(app) (Homo sapiens [2]): 3
CN1CCN(c2ccc(NC(=O)c3c(Nc4ccc(Cl)cc4)cc[nH]c3=O)cc2)CC1 | 629 nM | > 4 | > 2540 nM | –
CN1CCN(c2ccc(NC(=O)c3c(NCCc4ccccc4)cc[nH]c3=O)cc2)CC1 | 117 nM | < 1 | 49 nM | –
CN1CCN(c2ccc(NC(=O)c3c(NCCc4ccc(Cl)cc4)cc[nH]c3=O)cc2)CC1 | 262 nM | < 1 | 37 nM | –
COc1ccccc1Nc1cc[nH]c(=O)c1C(N)=O | > 688 nM | > 3.6 | > 2500 nM | –
CN1CCN(c2ccc(NC(=O)c3c(NCCc4cccc(Cl)c4)cc[nH]c3=O)cc2)CC1 | 66 nM | 1 | 43 nM | –
COc1ccccc1Nc1cc[nH]c(=O)c1C(=O)Nc1ccc(C2CCN(C)CC2)cc1 | 15 nM | 29 | 634 nM | logD [8]: 2.7; solubility kinetic at 24 h [6]: 61 µM (≈ 26.4 µg/mL); EC50 [7]: 433 nM; Ratio EC50 (H1975): > 23
COc1ccccc1Nc1cc[nH]c(=O)c1C(=O)Nc1ccc(N2CCN(C)CC2)c(C)c1 | 26 nM | 16 | – | Ratio Ki(app) (Homo sapiens [1]): 0.9; Ratio Ki(app) (Homo sapiens [2]): 42
